Drawing on patent US7166597B2, “Fused pyrazole derivatives being protein kinase inhibitors” (Glaxo Group Limited, priority 2000, dated 2007), this text covers IC50 and inhibition in vivo for five molecules.

Series [1] in a line: Cell Based Efficacy (MTT Assay), cytotoxicity toward HFF. The following applies: human, HFF cells (human foreskin fibroblasts). On the procedure: Cell Based Efficacy (MTT Assay)
The potency of compounds of the invention are tested for their ability to inhibit cell proliferation and cell viability. The metabolic conversion of 3-(4,5-dimethylthiazol-2-yl)-2,5-diphenyltetrazolium bromide (MTT, Sigma #M2128) to a reduced form was a commonly used measure of cellular viability. Following was the procedure:
Cells are maintained in 75 cm^2 tissue culture flasks until ready for use. The cells are grown and plated for the assay in Dulbecco's modified Eagle's media containing 10% fetal bovine serum. For example, the following cell lines can be used: a) human foreskin fibroblasts (HFF), b) HT29 (human colon carcinoma cell line), c) MDA-MB468 (human breast carcinoma cell line), d) RKO (human colon adenocarcinoma cell line), e) SW620 (human colon carcinoma cell line), f) A549 (human lung carcinoma cell line), and g) MIA PACA (human pancreatic carcinoma cell line). Cells are maintained at 37° C. in 10% CO2, 90% humidified air. Cells are plated in 96-well tissue culture plates at the densities listed below (Table 6). 100 μL of cell suspension was added to each well of the 96-well plate except the top row of the plate which contains no cells and serves as a reference for the spectrophotometer.
Cells are incubated overnight in Dulbecco's modified Eagle's media containing 10% fetal bovine serum at 37° C. in 10% CO2, 90% humidified air prior to dosing. Cells are dosed in 10 sequential 3-fold dilutions starting at 30 μM depending upon the solubility of the compound. Compounds with solubilities of less than 30 μM are dosed at the highest soluble concentration. Stock solutions of compounds are made in 100% dimethyl sulfoxide (DMSO). Stock solutions are diluted in Dulbecco's modified Eagle's media containing 100 ug/mL gentamicin and 0.3 to 0.6% DMSO at the twice the highest concentration to be placed on the cells. If compounds have been dissolved in DMSO the final concentration of DMSO on the cells was kept below 0.3%. 3-fold serial dilutions are performed on each compound to prepare 10 concentrations of the compound for dosing. 100 μL of diluted compound was added to the 100 μL of media currently on the dish. For each concentration of compound, 2–4 replicate wells are prepared.
Cells are returned to incubator and allowed to proliferate in the presence of compound for 72 h before addition of MTT. MTT was prepared in phosphate buffered saline (Irvine Scientific #9240) at a concentration of 2 mg/mL. 50 μL per well of MTT solution was added to the 200 μL of media to yield a final concentration of 0.4 mg/mL and plates are returned to the incubator for 4 h. After 4 h incubation the media, compound and MTT mixture was aspirated from the plates and 100 μL of 100% DMSO was added to each well in addition to 25 uL of Sorenson's Buffer (0.1M glycine, 0.1M NaCl, pH 10.5). Quantitation of metabolic reduction of MTT in each plate was performed by reading optical density at 570 nm wavelength on a Molecular Devices UV max microplate reader. Growth inhibition curves and 50% inhibitory concentrations are determined using Microsoft Excel.

Series [2] has as its system serum TNFα elevation in mice treated with lipopolysaccharide (LPS). Description: Murine LPS-Stimulated Serum TNF Inhibition. It is filed as in vivo. The following applies: Mus musculus, 1.5 h, dose 30 mpk, read-out: % inh. (dose): % inhibition of murine TNF production in mice following an LPS challenge. The procedure:
Murine LPS—Stimulated Serum TNF Inhibition Protocol
The potency of compounds of the invention as inhibitors of serum TNFα elevation in mice treated with lipopolysaccharide (LPS) was determined as follows; a) for subcutaneous (s.c.) administration, test compound was dissolved in DMSO and added to a mixture of 0.9% sodium chloride solution and 30% Trappsol HPB-20 (Cyclodextrin Technology Development Inc., Gainesville, Fla. USA) for a final DMSO concentration of 1%. The dosing solution was sonicated briefly and 0.2 mL was injected subcutaneously 10 min prior to LPS injection; b) for per oral (p.o.) administration, test compounds were formulated in 0.2 mL of PBS and 0.1% Tween 80 and given orally via gavage 10 min prior to LPS administration.
C3/hen female mice were injected intraperitoneally with 200 μg/kg LPS (Escherichia coil, Serotype 0111:B4, Sigma Chemical Co, St. Louis, Mo.) in PBS and sacrificed 90 min later by CO2 asphyxiation. Blood was immediately taken from the caudal vena cava and plasma prepared and frozen at −80° C. Plasma concentrations of TNF were measured by ELISA (Genzyme Co., Cambridge Mass.).

Series [3] deals with TNF release from human peripheral blood mononuclear cells (PBMNC). The experiment in a line: Cell Based Assay for Cytokines Production in PBMNC (TNF release after LPS). The following applies: PBMC, read-out: TNF/PBMNC (inhibition of TNF release from human PBMNC following stimulation with LPS, IC50). On the procedure:
Cell Based Assay for Cytokines Production in PBMNC
Human peripheral blood mononuclear cells were isolated from heparinized blood by LSM (Organon Teknika) from volunteer donors. Purified human peripheral blood mononuclear cells were then suspended at a concentration of 2×10^6 cells/ml in RPMI 1640 medium supplemented with 10% heat-inactivated FBS and 1% antibiotics. Aliquots of 100 μl (2×10^5 cells) were added to 96-well microliter plates. Test compounds at […] dose ranges (final-DMSO concentration in culture medium was 0.1%) were then added to the cells for 10–15 minutes before the addition of lipopolysaccharide (1 ng/ml). After incubation at 37° C. in a 5% CO2 incubator for 18–20 h, cell free supernatants were collected by centrifugation at 800 g. The supernatant was then assayed for the amount of TNFα and IL-1β by using Quantikine immunoassay kits developed by R&D Systems (Minneapolis, Minn.).

The next series deals with T1, p38 kinase (Homo sapiens, UniProt Q16539).
T1 construct: GST (N); made in house; host or cells: E. coli
T1 sequence (Q16539 whole entry): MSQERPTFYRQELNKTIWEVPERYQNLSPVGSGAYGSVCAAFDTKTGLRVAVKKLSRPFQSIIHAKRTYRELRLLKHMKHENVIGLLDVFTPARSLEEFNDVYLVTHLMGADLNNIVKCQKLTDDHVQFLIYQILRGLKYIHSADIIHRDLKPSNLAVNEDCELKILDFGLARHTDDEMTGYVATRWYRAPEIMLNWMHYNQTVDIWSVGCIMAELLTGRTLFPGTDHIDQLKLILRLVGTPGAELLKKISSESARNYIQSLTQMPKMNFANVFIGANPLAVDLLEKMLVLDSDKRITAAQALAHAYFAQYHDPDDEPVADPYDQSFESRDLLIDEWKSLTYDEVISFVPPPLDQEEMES
The experiment in a line: p38 Kinase Assay. It is filed as biochemical.

Setting [4] is: Table 7, compounds wherein Z is CH, read-out: P38 kinase (inhibition of p38 kinase, IC50).

pIC50: −log10 of the molar value. Read-outs that look alike come from different tables or passages of the source.

In general, IC50 refers to the concentration that inhibits the measured activity by half. A higher IC50 goes with weaker potency. In series [1] (Table 7, HFF cell line), `Fc1ccc(-c2nn3ccccc3c2-c2ccncc2)cc1` [Example 1, 2-(4-Fluorophenyl)-3-(4-pyridyl)-pyrazolo[1,5-a]pyridine] came in with an IC50 at 72 h greater than 50000 nM. For the same molecule, the inhibition in vivo at 30 mg/kg in series [2] (Table 7, LPS challenge) came out at 65%. Moreover, the pIC50 is greater than 6.30 in series [3] (Table 7, LPS stimulation) and greater than 6.30 on p38 kinase (setting [4]).
Molecule `OCCCNc1cc(-c2c(-c3ccc(F)cc3)nn3ccccc23)ccn1` [Example 30, 3-(4-[2-(4-Fluorophenyl)pyrazolo[1,5-a]pyridin-3-yl]-2-pyridinylamino)-1-propanol] yielded an IC50 at 72 h in series [1] (Table 7, HFF cell line) greater than 50000 nM. Also, the inhibition in vivo at 30 mg/kg in series [2] (Table 7, LPS challenge) came to 45%. Also, the pIC50 is greater than 6.30 in series [3] (Table 7, LPS stimulation) and greater than 6.30 on p38 kinase (setting [4]).
As for `Nc1ncccc1C(=O)OCc1ccn2nc(-c3ccc(F)cc3)c(-c3ccncc3)c2c1` [Example 16, [2-(4-Fluorophenyl)-3-(4-pyridinyl)pyrazolo[1,5-a]pyridin-5-yl]methyl 2-aminonicotinate], in series [1] (Table 7, HFF cell line), the IC50 at 72 h was greater than 50000 nM. Also, the pIC50 is greater than 6.30 in series [3] (Table 7, LPS stimulation) and greater than 6.30 at p38 kinase (setting [4]).
Consider `Fc1ccc(-c2nn3ccccc3c2-c2ccncn2)cc1` [Example 56, 2-(4-Fluorophenyl)-3-(4-pyrimidinyl)-pyrazolo[1,5-a]pyridine], for which the IC50 at 72 h in series [1] (Table 8, HFF cell line) was greater than 50000 nM. In series [2] (Table 8, LPS challenge), the inhibition in vivo at 30 mg/kg stood at 67%. The pIC50 in series [3] (Table 8, LPS stimulation) was 5.30 to 6.30; at p38 kinase (Table 8, compounds wherein Z is N, read-out: p38 kinase (inhibition of p38 kinase, IC50)) it was 5.30 to 6.30.
Take `Fc1ccc(-c2nn3ccccc3c2-c2ccnc(NCc3cccnc3)c2)cc1` [Example 37, 4-[2-(4-Fluorophenyl)pyrazolo[1,5-a]pyridin-3-yl]-N-(3-pyridinylmethyl)-2-pyridinamine]: in series [1] (Table 7, HFF cell line), the half-maximal inhibitory concentration (IC50) at 72 h lay in the range of 5000 to 50000 nM. The pIC50 was greater than 6.30 in series [3] (Table 7, LPS stimulation) and greater than 6.30 at p38 kinase (setting [4]).
